Data published in publication doi:10.1101/2025.04.25.650653, “Hierarchical small molecule inhibition of MYST acetyltransferases” (bioRxiv, 2025).
Several values for one entry are separate records, joined by “and”; a condition that tells them apart may be missing. Equal values may be shown once.

Key:
Assay type in all cases: cell-based
H4K16Ac (KAT8) [1] = assay: Histone biomarker bottom-up LC-MS/MS, MCF-7; details: for Ratio, H4_4_17 K16ac: Replicates 1-3
H3K23Ac (KAT6A/B) = assay: MYST KAT biomarker western blot, BT-549; details: BT-549 cells, 24 h, near the GI50 dose
Excerpt: (§1) Figure 6. […] (C) Dependence of breast cancer cell lines on non-MYST KATs (EP300, CREBBP), MYST KATs (KAT6A, KAT6B, KAT7, KAT8, KAT5), and a MYST KAT complex member (BRPF1) derived from on DepMap CRISPR screening data. BT-549 is highlighted in orange. Lower CERES score indicates a greater dependence of the cell line on the specified gene. […] Data is representiative of n=2 biological replicates.
(§2) Analysis of DepMap-derived CRISPR screening data supports the notion that while breast cancer models vary widely in their requirement for EP300 and CREBBP, BT-549 appears to a fairly independent line. By comparison, targeting of KAT6 and KAT7 exerts modest effects on growth while KAT8 is highly inhibitory, consistent with its designation as an essential gene (Fig. 6C).[47], [48] […] KAT3 (H3K18Ac) and KAT5 (H2A.ZK4/K7Ac) were unaffected. […]
(§3) distinguish between tightly grouped and diffuse clusters, compactness was quantified by calculating the average pairwise Euclidean distance between all points within each cluster. Clusters with lower average […]
(§4) were visualized as two-dimensional scatter plots with points colored according to cluster assignments, […]
(§5) Binding structures between FOXK2 (Uniprot: Q01167) and candidate interactors identified from our chemoproteomic data were predicted using AlphaPulldown4 v0.30.7,4 with multiple sequence alignments generated via ColabFold Search v1.5.5 on the NIH HPC Biowulf Cluster. Five models were generated per protein-protein pair without using templates or paired MSAs. Local Interaction Scores (LIS) and Local Interaction Area (LIA) were calculated according to previously described formulas.5 Structural visualizations were generated using ChimeraX v1.8.
(§6) Composite scoring of candidate FOXK2-protein interactions
(§7) To prioritize potential interactions, we developed a composite scoring system integrating multiple AlphaFold metrics (mpDockQ/pDockQ, LIS, and LIA), building upon established approaches for protein-protein interaction analysis.6 Each interaction was evaluated against minimum acceptable thresholds (1610 for LIA, 0.073 for LIS, and 0.175 for mpDockQ/pDockQ) and assigned a weighted constant (k): 1.0 for passing all three thresholds, 0.75 for two, 0.5 for one, and zero for none. Metrics were then min-max normalized, summed, and multiplied by the weighted constant to generate final composite scores for ranking candidate interactions. All data, code, and analysis scripts can be accessed as described in Data […]
(§8) Prediction of interface contacts […]
(§9) P61964), were further analyzed to identify interface residue-residue contacts using both AlphaFold2 and AlphaFold3. For AlphaFold2 analysis7 we calculated Euclidean distances between alpha carbon coordinates of residues using Sci-Py's Distance Matrix Module, filtering for interactions under 8Å. […]

H3K18Ac (KAT3) = assay: MYST KAT biomarker western blot, BT-549; details: BT-549 cells, 24 h, 0.1-30 μM
Excerpt: as §1, §2, §3, §4, §5, §6, §7, §8, §9

H3K14Ac (KAT7) = assay: MYST KAT biomarker western blot, BT-549; details: BT-549 cells, 24 h, near the GI50 dose
Excerpt: as §1, §2, §3, §4, §5, §6, §7, §8, §9

H2A.ZK4/K7Ac (KAT5) = assay: MYST KAT biomarker western blot, BT-549; details: BT-549 cells, 24 h, 0.1-30 μM
Excerpt: as §1, §2, §3, §4, §5, §6, §7, §8, §9

BT-549 cells = assay: ATP-based viability assay (CellTiter-Glo); details: Homo sapiens; BT-549, ATP-Glo assay, 72 h, n=4
Excerpt: as §1
Analysis of DepMap-derived CRISPR screening data supports the notion that while breast cancer models vary widely in their requirement for EP300 and CREBBP, BT-549 appears to a fairly independent line. […]
(0.01, 0.1, 1, 10, 100 μM) for 48 hours and analyzed by sulforhodamine B assay for growth inhibition as previously described.12-14 o validate the NCI-60 relative activity trends using an orthogonal method, we […]
0.94, 0.47, 0.23, 0 μM) for 96 hours. Experiments were performed in quadruplicate, and cell viability was measured using CellTiter-Glo® Luminescent Cell Viability Assay (Promega, G7572) according to the manufacturer's instructions. Luminescence signals were recorded on a BioTek Synergy 2 plate reader, and results were normalized to vehicle-treated controls (set to 100%). Half-maximal inhibition values (IC₅₀) were determined from nonlinear regression analysis of dose-response curves using GraphPad Prism 9. […]

H4K16Ac (KAT8) [2] = assay: MYST KAT biomarker western blot, BT-549; details: BT-549 cells, 24 h, near the GI50 dose

`COc1cccc(OC)c1S(=O)(=O)Nc1noc2cc(Cn3cccn3)cc(OC)c12` [PF-9363] was tested, and the IC50 (H4K16Ac (KAT8) [1]; Homo sapiens, MCF7, MCF-7 cells, 24 h) was ~10 µM, the “Ratio, H4_4_17 K16ac” value (H4K16Ac (KAT8) [1]; KAT marker KAT8, PF-9363 0.1) was 0.3188 and 0.3244 and 0.3222 and the “Ratio, H4_4_17 K16ac” value (H4K16Ac (KAT8) [1]; KAT marker KAT8, PF-9363 1) was 0.2629 and 0.2802 and 0.2713. The “Ratio, H4_4_17 K16ac” value (H4K16Ac (KAT8) [1]; KAT marker KAT8, PF-9363 10) was 0.1497 and 0 and 0.16, the “Ratio, H4_4_17 K16ac” value (H4K16Ac (KAT8) [1]; KAT marker KAT8, PF-9363 30) was 0 (2×) and 0.08259 and the “Average ratio, H4_4_17 K16ac” value (H4K16Ac (KAT8) [1]; KAT marker KAT8, PF-9363 (0.1 mM)) was 0.3218. For the same molecule, the “Average ratio, H4_4_17 K16ac” value (H4K16Ac (KAT8) [1]; KAT marker KAT8, PF-9363 (30 mM)) was 0.0275, the “Fold-change 0.1 v 30, H4_4_17 K16ac” value (H4K16Ac (KAT8) [1]; KAT marker KAT8, average ratio 0.1 v 30) was 11.69 and the “inhibition of KAT6A/B (H3K23Ac)” value (H3K23Ac (KAT6A/B)) was “near complete inhibiton”. The “effect on KAT3 (H3K18Ac)” value (H3K18Ac (KAT3)) was “unaffected”, the “inhibition of KAT7 (H3K14Ac)” value (H3K14Ac (KAT7)) was “near complete inhibiton” and the “effect on KAT5 (H2A.ZK4/K7Ac)” value (H2A.ZK4/K7Ac (KAT5)) was “unaffected”. For the same molecule, the GI50 (BT-549 cells) was ~7 µM and the “inhibition of KAT8 (H4K16Ac)” value (H4K16Ac (KAT8) [2]) was “near complete inhibiton”.
